Consider 1 compound from patent publication US20240026461A1, “BCL10 MUTATIONS AS BIOMARKERS FOR TARGETED THERAPY IN B CELL LYMPHOMAS” (priority 2022, published 2024).

Test [1] relates to BCL10^E140X ABC-DLBCL xenografts. As to the kind of experiment: Xenograft, JNJ-67690246 treatment, BCL10^E140X tumors. Particulars: OCI-Ly10 cell line, p.o. 100 mg/kg twice per day. It counts as in vivo, mice. From the text: FIG. 7A-7K illustrate that subjects with BCL10 truncating mutant lymphomas are hypersensitive to MALT1 protease inhibitors. FIG. 7A graphically illustrates growth inhibition of human diffuse large B-cell lymphoma (HBL1) cells and OCI-Ly10 lymphoma cells expressing wild type or mutant BCL10 proteins in response to MALT1 inhibitor C3. X axis, concentration of compound (M); Y axis, inhibition of cell growth normalized to vehicle treated cells. **p<0.01; ***p<0.001; ****p<0.0001; ns, not significant. […] FIG. 7D graphically illustrates luciferase activity measured in the MALT1 GloSensor reporter cell lines treated with MALT1 inhibitor C3. […] FIG. 7E graphically illustrates luciferase activity measured in the MALT1 GloSensor reporter cell lines treated with MALT1 inhibitor MLT-748. […] FIG. 7F graphically illustrates luciferase activity measured in the MALT1 GloSensor reporter cell lines treated with MALT1 inhibitor JNJ-67690246. […] AUC was calculated with Prism. *p<0.05. FIG. 7J graphically illustrates tumor weight measured at the endpoint of the studies described in FIG. 7G-7I. *p<0.05.
All mice experiments were approved by Institutional Animal Care & Use Committee (IACUC) at Weill Cornell Medicine and were performed following the IACUC guidelines. […] Tumor volume was monitored 2˜3 times/week with digital caliper and calculated using the following formula. smallest diameter^2×largest diameter×0.5. […]

Test [2] has as its system isogenic ABC-DLBCL cells expressing BCL10^WT, BCL10^R58Q and BCL10^E140X. As to the kind of experiment: Growth inhibition of isogenic ABC-DLBCL cells, response described in words. In kind it is cell-based, human. As to conditions: 96 hours. The method, then:
DLBCL cell lines were cultured in exponential condition and the cell growth was determined by CellTiter Glo (Promega). 3000-5000 cells were seeded and cultured in each well of 384 well plate for 96 h and treated with compounds every 48 h. Luminescence was read at the endpoint with the Synergy NEO microplate reader (BioTek). The value of compound treated cells was normalized to their vehicle treated controls and then used to calculate IC50 in GraphPad Prism (RRID:SCR_002798).
Given the distinct functional profiles, CARD11 dependencies, and MALT1 activation effects of the BCL10 CARD and truncation mutants, the inventors designed experiments to evaluate whether, and to what extent, these mutant BCL10 proteins might confer BTK inhibitor resistance. Isogenic ABC-DLBCL cells expressing BCL10WT, BCL10^R58Q and BCL10^E140X proteins were treated with escalating doses of three chemically distinct covalent BTK inhibitors: ibrutinib, acalabrutinib, or zanubrutinib. The cellular proliferation rates of the treated cells were measured using an ATP fluorescence assay after 96 hours of drug exposure.
Isogenic BCL10^WT, BCL10^R58Q and BCL10^E140X ABC-DLBCLs were exposed to increasing concentrations of each of these compounds for 96 hours.

In the case of `Cc1nc(-n2nccn2)c(Cl)cc1NC(=O)c1cnn(-c2cccc3c(=O)[nH]ccc23)c1C(F)(F)F` [JNJ-67690246], the “growth of lymphoma xenografts” value in test [1] is given as “significant reduction in growth”. The “growth response in words” value in test [2] (BCL10^R58Q ABC-DLBCL cells) and in test [2] (BCL10^WT ABC-DLBCL cells) was “generally sensitive” in each case.
